Experimental data as given in ChEMBL document CHEMBL5316314, “Structure-Activity Relationship Studies of Antimalarial Plasmodium Proteasome Inhibitors─Part II” (J Med Chem, 2023).

Experiment: Kinetic solubility of compound at pH 6.8
Type: physicochemical
Conditions: buffer

Compound	Kinetic_solubility
CC(=O)N[C@H]1Cc2cccc(c2)Oc2cccc(c2)C[C@@H](C(=O)NCC(F)(F)F)NC(=O)[C@H](CCc2ccccc2)NC1=O	< 1.4 µg/mL
O=C(NCC(F)(F)F)[C@@H]1Cc2cccc(c2)Oc2cccc(c2)C[C@H](N2CCCC2=O)C(=O)N[C@@H](CCc2ccccc2)C(=O)N1	3.8 µg/mL
Cn1cc(CNC(=O)[C@@H]2Cc3cccc(c3)Oc3cccc(c3)C[C@H](N3CCCS3(=O)=O)C(=O)N[C@@H](CCN3CCCCC3)C(=O)N2)cn1	> 140 µg/mL
O=C(NCC(F)(F)F)[C@@H]1Cc2cccc(c2)Oc2cccc(c2)C[C@H](N2CCCC2=O)C(=O)N[C@@H](CCN2CCC(F)(F)CC2)C(=O)N1	> 140 µg/mL
CC(=O)N[C@H]1Cc2cccc(c2)Oc2cccc(c2)C[C@@H](C(=O)NCC(F)(F)F)NC(=O)[C@H](CCC(F)(F)F)NC1=O	< 1.2 µg/mL
O=C(NCC(F)(F)F)[C@@H]1Cc2cccc(c2)Oc2cccc(c2)C[C@H](N2CCCC2=O)C(=O)N[C@@H](CCN2CCC[C@@H](F)C2)C(=O)N1	> 130 µg/mL
COC[C@@H]1NC(=O)[C@@H](NC(C)=O)Cc2cccc(c2)Oc2cccc(c2)C[C@@H](C(=O)NCC(F)(F)F)NC1=O	14 µg/mL
C[C@H](NC(=O)[C@@H]1Cc2cccc(c2)Oc2cccc(c2)C[C@H](N2CCCC2=O)C(=O)N[C@@H](CCN2CCCCC2)C(=O)N1)C1CC1	> 120 µg/mL
O=C(NCC(F)(F)F)[C@@H]1Cc2cccc(c2)Oc2cccc(c2)C[C@H](N2CCCC2=O)C(=O)N[C@@H](Cc2ccccc2)C(=O)N1	22 µg/mL
CN1C(=O)[C@H](CCc2ccccc2)NC(=O)[C@@H](N2CCCC2=O)Cc2cccc(c2)Oc2cccc(c2)C[C@H]1C(=O)NCC(F)(F)F	4.2 µg/mL
CC(=O)N[C@H]1Cc2cccc(c2)Oc2cccc(c2)C[C@@H](C(=O)NCC(F)(F)F)NC(=O)[C@H](CC(C)C)NC1=O	< 1.4 µg/mL
O=C(NC1CCCC1)[C@@H]1Cc2cccc(c2)Oc2cccc(c2)C[C@H](N2CCCS2(=O)=O)C(=O)N[C@@H](CCN2CCOCC2)C(=O)N1	> 130 µg/mL
O=C(NCC(F)(F)F)[C@@H]1Cc2cccc(c2)Oc2cccc(c2)C[C@H](N2CCOC2=O)C(=O)N[C@@H](CCN2CCCCC2)C(=O)N1	65 µg/mL
Cn1cc(CNC(=O)[C@@H]2Cc3cccc(c3)Oc3cccc(c3)C[C@H](N3CCCC3=O)C(=O)N[C@@H](CCN3CCCCC3)C(=O)N2)cn1	> 150 µg/mL
O=C(NC1CCCC1)[C@@H]1Cc2cccc(c2)Oc2cccc(c2)C[C@H](N2CCCC2=O)C(=O)N[C@@H](CCN2CCCCC2)C(=O)N1	> 140 µg/mL
O=C(NCC1CC1)[C@@H]1Cc2cccc(c2)Oc2cccc(c2)C[C@H](N2CCCC2=O)C(=O)N[C@@H](CCN2CCCCC2)C(=O)N1	> 130 µg/mL
O=C(NCC1CC1)[C@@H]1Cc2cccc(c2)Oc2cccc(c2)C[C@H](N2CCCC2=O)C(=O)N[C@@H](CCN2CCOCC2)C(=O)N1	> 130 µg/mL
CCC[C@@H]1NC(=O)[C@@H](NC(C)=O)Cc2cccc(c2)Oc2cccc(c2)C[C@@H](C(=O)NCC(F)(F)F)NC1=O	< 1.9 µg/mL
CN1C(=O)[C@H](CCc2ccccc2)N(C)C(=O)[C@@H](N2CCCC2=O)Cc2cccc(c2)Oc2cccc(c2)C[C@H]1C(=O)NCC(F)(F)F	4 µg/mL
CC1(CNC(=O)[C@@H]2Cc3cccc(c3)Oc3cccc(c3)C[C@H](N3CCCC3=O)C(=O)N[C@@H](CCN3CCCCC3)C(=O)N2)CC1	> 130 µg/mL
Cn1cc(CNC(=O)[C@@H]2Cc3cccc(c3)Oc3cccc(c3)C[C@H](NS(C)(=O)=O)C(=O)N[C@@H](CCN3CCCCC3)C(=O)N2)cn1	> 140 µg/mL
C[C@@H](NC(=O)[C@@H]1Cc2cccc(c2)Oc2cccc(c2)C[C@H](N2CCCC2=O)C(=O)N[C@@H](CCN2CCCCC2)C(=O)N1)C1CC1	> 140 µg/mL
O=C(NCC(F)(F)F)[C@@H]1Cc2cccc(c2)Oc2cccc(c2)C[C@H](N2CCCC2=O)C(=O)N[C@@H](CCN2CCCCC2)C(=O)N1	> 140 µg/mL
